This test deals with T1, MAN2B1 (Homo sapiens, UniProt O00754).
T1 construct: expressed in transfected cells
T1 sequence (O00754 50-1011): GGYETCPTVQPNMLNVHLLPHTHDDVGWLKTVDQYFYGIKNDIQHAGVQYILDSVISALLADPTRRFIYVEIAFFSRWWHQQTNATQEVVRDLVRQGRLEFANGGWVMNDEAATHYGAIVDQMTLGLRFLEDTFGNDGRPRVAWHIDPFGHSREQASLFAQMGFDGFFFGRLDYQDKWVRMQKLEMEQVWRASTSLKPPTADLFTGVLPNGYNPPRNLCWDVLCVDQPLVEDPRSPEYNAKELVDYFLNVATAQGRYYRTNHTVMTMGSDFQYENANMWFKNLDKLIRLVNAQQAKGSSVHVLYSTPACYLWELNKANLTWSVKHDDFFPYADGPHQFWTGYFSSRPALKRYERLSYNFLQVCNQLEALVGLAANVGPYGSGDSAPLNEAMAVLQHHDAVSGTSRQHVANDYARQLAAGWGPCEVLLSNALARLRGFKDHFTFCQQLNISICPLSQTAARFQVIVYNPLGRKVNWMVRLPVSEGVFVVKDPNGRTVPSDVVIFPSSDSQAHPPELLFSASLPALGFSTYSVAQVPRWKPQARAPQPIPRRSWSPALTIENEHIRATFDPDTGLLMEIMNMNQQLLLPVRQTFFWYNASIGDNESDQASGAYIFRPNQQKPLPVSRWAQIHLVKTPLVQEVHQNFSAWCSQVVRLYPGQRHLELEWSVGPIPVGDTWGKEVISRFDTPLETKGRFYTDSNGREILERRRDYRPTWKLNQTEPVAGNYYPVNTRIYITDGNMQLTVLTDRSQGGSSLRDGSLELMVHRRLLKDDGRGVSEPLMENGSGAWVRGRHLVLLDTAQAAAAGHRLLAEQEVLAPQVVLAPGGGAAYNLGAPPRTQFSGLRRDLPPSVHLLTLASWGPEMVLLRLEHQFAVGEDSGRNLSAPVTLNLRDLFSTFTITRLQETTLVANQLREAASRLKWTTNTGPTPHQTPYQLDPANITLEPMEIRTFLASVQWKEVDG
The test is described as follows: 4-MU-α-man activity assay in overexpressed cell lysates. Format: biochemical. The text has this: Finally, selectivity versus a panel of related exo-mannosidases was investigated. We first tested inhibition against all five human GH38 retaining α-mannosidases in overexpressed cell lysates using 4-methylumbelliferyl-α-mannoside (4-MU-α-man): Golgi mannosidase II and IIx (MAN2A1 and MAN2A2), cytosolic MAN2C1 and lysosomal MAN2B1 and MAN2B2. This α-mannosidase family follows a different conformational itinerary than GH47: ^0S2 → B2,5 → ^1S5.[35] […] Of note, the presence of cobalt has been associated with conformational changes in the active site of some GH38 α-mannosidases, which might affect the binding interaction with inhibitors.[36] Nevertheless, additional research is required to explore which specific metal ion is present in the MAN2C1 active site in its in vivo state.
Trans-Cyclosulfamidate Cyclitols Males et al.
2.3 GH38 α-mannosidases and GH2 β-mannosidase inhibition studies
All chemicals were of analytical grade and purchased from Sigma-Aldrich unless stated otherwise.
Optimal stability of cell homogenates and enzyme working stocks was ensured by preparation and temporary storage on ice. Cell homogenates were prepared and used on the same day. Protein concentrations were quantified using the Pierce BCA Protein Assay Kit (ThermoFisher). Protein samples were measured in clear flat-bottom polystyrene 96 well microplates (Greiner Bio-One) using a EMax Plus Microplate Reader (Molecular Devices). Activity measurements of human GH38 α-mannosidases and bacterial β-mannosidase BtMan2A were performed in black flat-bottom polystyrene 96 wells microplates (Greiner Bio-One) and total fluorescence was measured using a Perkin Elmer LS-55 fluorescence spectrometer at wavelengths λex = 366 and λem = 445 nm, with the signal optimized for medium gain readings. The fluorescence values of each enzyme sample were corrected for the background signal of a blank sample containing no enzyme. In the case of IC50 determinations, values were normalized against a control sample containing enzyme without added inhibitor. For a single experiment, three separate curves were fitted from a technical triplicate by setting the inhibitor concentration in µM against the normalized response using GraphPad Prism 8.4.2 software. The Prism functions ‘[inhibitor] versus normalized response’ and ‘[inhibitor] versus normalized response -- variable slope’ were compared for each curve using the Akaike’s Information Criterion method to select the preferred model. Reported IC50 values are mean ± standard deviation from a biological […]
General cell culture protocol
HEK293T cells were grown to confluency at 37 °C under a 5% CO2 atmosphere in Dulbecco’s Modified Eagle’s Medium (DMEM) with a high glucose concentration (Capricorn Scientific, DMEM-HPXA) that was supplemented with 10% fetal calf serum, 0.1% (w/v) penicillin/streptomycin and 1% (v/v) Glutamax. Cells were passaged twice a week to new round polystyrene (PS) tissue culture dishes (Sarstedt) by detachment off the former culture plates by careful pipetting. To prepare cell pellets for activity measurements, plates were grown to confluency and harvested in phosphate buffered saline (PBS). After centrifugation at 1500 rpm for 5 min, the remaining PBS was aspirated and the cells were resuspended in fresh PBS. The concentration of the resulting suspension was then counted using a TC20 automated cell counter (BioRad). Aliquots were centrifuged at 2000 rpm for 5 min and the resulting cell pellets were stored at -80 °C until further use.
4-MU activity assay protocol for human GH38 α-mannosidases
HEK293T cells stably overexpressing human GH38 α-mannosidases MAN2A1, MAN2A2, MAN2B1, MAN2B2 and MAN2C1 were prepared as previously described[11] and were kindly donated by Dr. C. L.
Kuo. Homogenates were prepared by sonicating cell pellets (Sonics VibraCell, 5x1 s with 30 s interval at 20% amplitude) in 150 mM McIlvain buffer of pH 5.5 (MAN2A1, MAN2A2), pH 4.5 (MAN2B1, MAN2B2) or pH 6.7 (MAN2C1) containing either 2 mM ZnCl2 (MAN2A1, MAN2A2, MAN2B1, MAN2B2) […]

SMILES strings stand for the structures. Where only a bound is given, the exact number is not on record here.

For orientation: IC50 means the midpoint of a concentration-inhibition curve. Read a high IC50 as a need for much substance. As for `O=S1(=O)N[C@@H]2[C@@H](O)[C@@H](O)[C@H](O)[C@@H](CO)[C@H]2O1` [compound 6, 1,6-trans-manno-cyclosulfamidate], the “activity when the buffer was enriched with CoCl2” value (CoCl2) is on record as “no activity”. This molecule also displayed an IC50 (Zn2+) of over 1 mM.

The values above are taken from article PMC10685318, “Trans-cyclosulfamidate mannose-configured cyclitol allows isoform-dependent inhibition of GH47 α-D-mannosidases through a bump–hole strategy” (Chemical Science, 2023).
